The source of these data is ChEMBL document CHEMBL4130565, “Consequences of Depsipeptide Substitution on the ClpP Activation Activity of Antibacterial Acyldepsipeptides” (ACS Med Chem Lett, 2017).

Data set [1] can be described thus: Half life in CD3OD assessed as hydrogen-deuterium exchange by 1H-NMR analysis. The data set is classed as physicochemical.
Data set [2] addresses ATP-dependent Clp protease proteolytic subunit (Bacillus subtilis (strain 168)) (UniProt P80244). Nature of the data set: Stabilization of Bacillus subtilis ClpP assessed as change in melting temperature at 50 uM after 30 mins by SYPRO orange protein gel staining based FRET analysis.
Data set [3] concerns Bacillus subtilis. Nature of the data set: Antibacterial activity against Bacillus subtilis ATCC 6051 after 16 hrs by microdilution method. The data set is classed as functional. Conditions: ATCC 6051, 16 h. For orientation: In broth dilution the organism is exposed to a series of concentrations in liquid medium.
In data set [4] the target is ATP-dependent Clp protease proteolytic subunit (Bacillus subtilis (strain 168)) (UniProt P80244). As to the kind of experiment: Activation of Bacillus subtilis ClpP expressed in Escherichia coli BL21(DE3) using Abz-DFAPKMALVPYNO2 as substrate pretreated for 15 mins followed by substrate addition measured every 30 mins for 2 hrs by fluorescence assay.
Sequence of ATP-dependent Clp protease proteolytic subunit (Bacillus subtilis (strain 168)) (P80244 whole entry, looked up): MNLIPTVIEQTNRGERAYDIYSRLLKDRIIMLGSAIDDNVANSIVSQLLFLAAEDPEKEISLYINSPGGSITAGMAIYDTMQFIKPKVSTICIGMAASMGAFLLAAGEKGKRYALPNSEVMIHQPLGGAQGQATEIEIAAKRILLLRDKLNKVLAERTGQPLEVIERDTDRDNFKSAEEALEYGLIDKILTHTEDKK

SMILES strings stand for the structures. Where “and” joins values, the source holds several entries; their conditions need not be identical. Identical values can stand only once. Where a SMILES comes first, the peptide text is derived from it. Bridges are numbered along the chain shown (N, C = ends). [ ]: non-standard residue; d: D form. The star is where a group is joined. Phe(3,5-F2) = N[C@@H](Cc1cc(F)cc(F)c1)C(=O)O; Heptenoyl(2E) = CCCC/C=C/C(=O)*; NMeA = CN[C@@H](C)C(=O)O; Dap = NC[C@H](N)C(=O)O

The term half-life denotes the time in which the quantity being followed falls by half. The ΔTm is the shift of the melting midpoint relative to a reference. One may read the MIC as the least concentration at which growth counts as inhibited. With `CCCC/C=C/C(=O)N[C@@H](Cc1cc(F)cc(F)c1)C(=O)N[C@H]1CN(C)C(=O)[C@@H]2CCCN2C(=O)[C@H](C)NC(=O)[C@H](C)N(C)C(=O)[C@@H]2CCCN2C1=O`, the half-life in data set [1] was less than 4 min. In addition, the ΔTm in data set [2] came to 12.7 °C. For the same compound, the MIC in data set [3] is > 25 µM and > 18.6 µg/mL. The Kapp in data set [4] is 4.39 µM.
As for `CCCC/C=C/C(=O)N[C@@H](Cc1cc(F)cc(F)c1)C(=O)N[C@H]1COC(=O)[C@@H]2CCCN2C(=O)[C@H](C)NC(=O)[C@H](C)N(C)C(=O)[C@@H]2CCCN2C1=O` ({Heptenoyl(2E)}-[Phe(3,5-F2)]SP[NMeA]AP; ester 2-C), the half-life in data set [1] came out at 38 min. For the same compound, in data set [2], the ΔTm is 29.1 °C. For the same compound, in data set [3], the MIC was 0.037 µM and 0.027 µg/mL. For the same compound, in data set [4], the Kapp was determined as 0.037 µM.
Turning to `CCCC/C=C/C(=O)N[C@@H](Cc1cc(F)cc(F)c1)C(=O)N[C@H]1CNC(=O)[C@@H]2CCCN2C(=O)[C@H](C)NC(=O)[C@H](C)N(C)C(=O)[C@@H]2CCCN2C1=O` ({Heptenoyl(2E)}-[Phe(3,5-F2)][Dap]P[NMeA]AP; lactam 2-C), in data set [1], the half-life is less than 4 min. Besides, the ΔTm in data set [2] worked out at 22.8 °C. In data set [3], the MIC is 6.25 µM and 4.6 µg/mL. Further, in data set [4], the Kapp was determined as 0.085 µM.
